Measured values taken from patent publication US10986838B2, “Herbicides” (SYNGENTA PARTICIPATIONS AG, priority 2016, dated 2021).

How the values were obtained:
Format in all cases: in vivo
[1] = test system: Alopecurus myosuroides (ALOMY); assay: Pre-emergence herbicidal activity (B1); conditions: Test 1a, 1000 g/ha, evaluated after 13 days, 5=total damage to plant, 0=no damage to plant
Outline: (§1)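 After one day of cultivation, soil pots were treated pre-emergence by spray with active ingredient in acetone/water (50:50) and 0.5% Tween 20. Evaluation at 13 days used a 0–5 scale, where 5 meant total plant damage.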

[2] = test system: Avena fatua (AVEFA); assay: Pre-emergence herbicidal activity (B1); conditions: Test 1a, 1000 g/ha, evaluated after 13 days, 5=total damage to plant, 0=no damage to plant
Outline: as §1

[3] = test system: Echinochloa crus-galli (ECHCG); assay: Pre-emergence herbicidal activity (B1); conditions: Test 1a, 1000 g/ha, evaluated after 13 days, 5=total damage to plant, 0=no damage to plant
Outline: as §1

[4] = test system: Lolium perenne (LOLPE); assay: Pre-emergence herbicidal activity (B1); conditions: Test 1a, 1000 g/ha, evaluated after 13 days, 5=total damage to plant, 0=no damage to plant
Outline: as §1

[5] = test system: Setaria faberi (SETFA); assay: Pre-emergence herbicidal activity (B1); conditions: Test 1a, 1000 g/ha, evaluated after 13 days, 5=total damage to plant, 0=no damage to plant
Outline: as §1

[6] = test system: Triticum aestivium (TRZAW); assay: Pre-emergence herbicidal activity (B1); conditions: Test 1a, 1000 g/ha, evaluated after 13 days, 5=total damage to plant, 0=no damage to plant
Outline: as §1

[7] = test system: Alopecurus myosuroides (ALOMY); assay: Post-emergence herbicidal activity (B2); conditions: Test B2a, 1000 g/ha, evaluated after 13 days, 5=total damage to plant, 0=no damage to plant
Outline: (§2)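 Scores run from 0 (no damage) to 5 (total plant damage), assessed 13 days after spraying. Seedlings had grown 8 days under controlled glasshouse conditions before treatment with an aqueous spray from an acetone/water (50:50) formulation with 0.5% Tween 20.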

[8] = test system: Avena fatua (AVEFA); assay: Post-emergence herbicidal activity (B2); conditions: Test B2a, 1000 g/ha, evaluated after 13 days, 5=total damage to plant, 0=no damage to plant
Outline: as §2

[9] = test system: Echinochloa crus-galli (ECHCG); assay: Post-emergence herbicidal activity (B2); conditions: Test B2a, 1000 g/ha, evaluated after 13 days, 5=total damage to plant, 0=no damage to plant
Outline: as §2

[10] = test system: Lolium perenne (LOLPE); assay: Post-emergence herbicidal activity (B2); conditions: Test B2a, 1000 g/ha, evaluated after 13 days, 5=total damage to plant, 0=no damage to plant
Outline: as §2

[11] = test system: Setaria faberi (SETFA); assay: Post-emergence herbicidal activity (B2); conditions: Test B2a, 1000 g/ha, evaluated after 13 days, 5=total damage to plant, 0=no damage to plant
Outline: as §2

[12] = test system: Triticum aestivium (TRZAW); assay: Post-emergence herbicidal activity (B2); conditions: Test B2a, 1000 g/ha, evaluated after 13 days, 5=total damage to plant, 0=no damage to plant
Outline: as §2

Row | SMILES | ALOMY damage score [1] | AVEFA damage score [2] | ECHCG damage score [3] | LOLPE damage score [4] | SETFA damage score [5] | TRAZW damage score [6] | ALOMY damage score [7] | AVEFA damage score [8] | ECHCG damage score [9] | LOLPE damage score [10] | SETFA damage score [11] | TRAZW damage score [12]
1 | Fc1cncc(-c2ccc(NCC3CCC3)c(C(F)(F)F)n2)c1 [Compound A51, N-(cyclobutylmethyl)-6-(5-fluoro-3-pyridyl)-2-(trifluoromethyl)pyridin-3-amine] | 1 | 1 | 5 | 1 | 5 | 1 | 1 | 4 | 5 | 3 | 4 | 2
2 | Fc1cncc(-c2ccc(NCC3CCCCC3)c(C(F)(F)F)n2)c1 [Compound A52] | 0 | 1 | 3 | 1 | 5 | 0 | 0 | 3 | 3 | 3 | 5 | 0
3 | CC(C)CCNc1ccc(-c2cncc(F)c2)nc1C(F)(F)F [Compound A53] | 1 | 1 | 4 | 2 | 5 | 1 | 1 | 3 | 5 | 3 | 5 | 1
4 | CCCCCNc1ccc(-c2cncc(F)c2)nc1C(F)(F)F [Compound A54] | 0 | 1 | 3 | 1 | 5 | 0 | 0 | 3 | 3 | 2 | 5 | 0
5 | Fc1cncc(-c2ccc(NCc3cc4ccccn4n3)c(C(F)(F)F)n2)c1 [Compound A55] | 0 | 2 | 5 | 1 | 5 | 0 | 1 | 4 | 5 | 3 | 5 | 2
6 | Fc1cncc(-c2ccc(NCc3nccs3)c(C(F)(F)F)n2)c1 [Compound A56] | 0 | 2 | 4 | 1 | 5 | 1 | 1 | 4 | 5 | 3 | 5 | 1
7 | Fc1cncc(-c2ccc(NCc3cscn3)c(C(F)(F)F)n2)c1 [Compound A57] | 1 | 3 | 5 | 1 | 5 | 0 | 1 | 4 | 5 | 4 | 5 | 2
8 | Cn1ccc(CNc2ccc(-c3cncc(F)c3)nc2C(F)(F)F)n1 [Compound A59] | 0 | 3 | 4 | 1 | 5 | 0 | 1 | 3 | 5 | 3 | 5 | 2
9 | Fc1cncc(-c2ccc(NCc3cnco3)c(C(F)(F)F)n2)c1 [Compound A60] | 0 | 3 | 5 | 1 | 5 | 0 | 1 | 3 | 5 | 4 | 5 | 2
10 | CN1CCN(c2ccc(-c3cncc(F)c3)nc2C(F)(F)F)CC1 [Compound A61] | 0 | 2 | 4 | 0 | 5 | 0 | 1 | 3 | 5 | 2 | 5 | 1
11 | Fc1cncc(-c2ccc(N3CC(F)(F)C(F)(F)C3)c(C(F)(F)F)n2)c1 [Compound A62] | 0 | 1 | 3 | 0 | 5 | 0 | 0 | 3 | 3 | 2 | 5 | 0
12 | Fc1cncc(-c2ccc(N3CCC3)c(C(F)(F)F)n2)c1 [Compound A63] | 0 | 0 | 2 | 0 | 5 | 0 | 0 | 3 | 3 | 2 | 5 | 0
13 | Fc1cncc(-c2ccc(N3CCCC3C(F)(F)F)c(C(F)(F)F)n2)c1 (stereo not drawn) [Compound A64] | 0 | 0 | 1 | 0 | 1 | 0 | 0 | 1 | 2 | 0 | 4 | 0
